The source made the active and inactive calls. The rule behind the calls is not given here.
Key:
[1] = biological target: Disintegrin and metalloproteinase domain-containing protein 17 (Homo sapiens) (UniProt P78536); test: Inhibitory activity against TACE
Stromelysin-1 [2] = biological target: T1, Stromelysin-1 (Homo sapiens, UniProt P08254); test: In vitro inhibition of human recombinant Matrix metalloprotease-3.
Interstitial collagenase [3] = biological target: T2, Interstitial collagenase (Homo sapiens, UniProt P03956); test: In vitro inhibition of human recombinant Matrix metalloprotease-1.
T2 sequence (P03956 whole entry): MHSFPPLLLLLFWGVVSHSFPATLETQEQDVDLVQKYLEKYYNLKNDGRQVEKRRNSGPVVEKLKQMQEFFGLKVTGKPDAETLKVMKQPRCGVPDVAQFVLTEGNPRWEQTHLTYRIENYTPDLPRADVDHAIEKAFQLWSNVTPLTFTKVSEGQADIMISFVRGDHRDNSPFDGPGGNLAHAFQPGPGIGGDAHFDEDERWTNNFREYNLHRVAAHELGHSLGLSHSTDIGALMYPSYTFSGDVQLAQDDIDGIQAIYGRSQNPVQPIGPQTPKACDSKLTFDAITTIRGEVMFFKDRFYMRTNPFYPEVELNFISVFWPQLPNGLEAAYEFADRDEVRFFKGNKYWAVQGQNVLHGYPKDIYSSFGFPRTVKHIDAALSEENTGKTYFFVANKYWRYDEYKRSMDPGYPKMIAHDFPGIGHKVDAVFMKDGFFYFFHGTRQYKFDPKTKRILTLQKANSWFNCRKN

[4] = biological target: T3, 72 kDa type IV collagenase (Homo sapiens, UniProt P08253)
T3 sequence (P08253 whole entry): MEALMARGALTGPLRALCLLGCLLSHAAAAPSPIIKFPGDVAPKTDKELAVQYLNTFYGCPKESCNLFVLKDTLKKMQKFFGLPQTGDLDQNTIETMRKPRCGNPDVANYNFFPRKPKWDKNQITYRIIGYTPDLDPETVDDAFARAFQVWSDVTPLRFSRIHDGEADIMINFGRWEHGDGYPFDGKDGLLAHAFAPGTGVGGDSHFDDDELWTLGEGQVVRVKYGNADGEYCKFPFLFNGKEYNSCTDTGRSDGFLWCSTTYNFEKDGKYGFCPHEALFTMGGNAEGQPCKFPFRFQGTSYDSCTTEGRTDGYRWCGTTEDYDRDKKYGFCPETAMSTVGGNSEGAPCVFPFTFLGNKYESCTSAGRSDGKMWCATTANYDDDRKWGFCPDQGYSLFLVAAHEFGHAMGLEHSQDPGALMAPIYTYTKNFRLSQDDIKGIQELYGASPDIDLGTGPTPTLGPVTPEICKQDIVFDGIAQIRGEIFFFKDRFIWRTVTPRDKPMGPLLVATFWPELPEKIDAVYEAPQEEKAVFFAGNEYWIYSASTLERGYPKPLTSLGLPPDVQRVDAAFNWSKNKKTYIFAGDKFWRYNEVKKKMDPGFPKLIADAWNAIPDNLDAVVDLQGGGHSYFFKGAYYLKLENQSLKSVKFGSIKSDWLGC
Description: In vitro inhibition of human recombinant Matrix metalloprotease-2.

[5] = In vitro for the inhibition of TNF alpha release by human peripheral blood monocytes (PBMs); type: functional
[6] = biological target: Phosphodiesterase 4 (Cavia porcellus); test: Phosphodiesterase 4 inhibitory activity measured against guinea pig macrophage homogenate
[7] = biological target: T3, 72 kDa type IV collagenase; test: Inhibitory activity against recombinant matrix metalloprotease-2
Interstitial collagenase [8] = biological target: T2, Interstitial collagenase; test: Inhibition of Matrix metalloprotease-1
Stromelysin-1 [9] = biological target: T1, Stromelysin-1; test: Inhibitory activity against recombinant matrix metalloprotease-3

T1 sequence (P08254 whole entry): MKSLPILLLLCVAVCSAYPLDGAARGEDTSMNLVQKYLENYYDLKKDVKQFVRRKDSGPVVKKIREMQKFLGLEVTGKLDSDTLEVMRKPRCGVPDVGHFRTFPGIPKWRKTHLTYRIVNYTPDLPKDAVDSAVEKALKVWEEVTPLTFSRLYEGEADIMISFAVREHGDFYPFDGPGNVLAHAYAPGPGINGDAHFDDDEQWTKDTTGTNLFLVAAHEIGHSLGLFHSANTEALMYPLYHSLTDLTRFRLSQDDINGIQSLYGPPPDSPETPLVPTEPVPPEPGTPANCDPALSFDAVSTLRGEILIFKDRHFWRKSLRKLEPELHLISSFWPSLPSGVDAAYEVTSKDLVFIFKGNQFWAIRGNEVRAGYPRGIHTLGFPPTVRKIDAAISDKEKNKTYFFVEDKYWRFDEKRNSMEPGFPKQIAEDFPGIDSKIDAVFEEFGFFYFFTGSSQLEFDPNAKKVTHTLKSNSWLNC
Chain of Disintegrin and metalloproteinase domain-containing protein 17 (Homo sapiens) (P78536 whole entry, the tested form may be a part): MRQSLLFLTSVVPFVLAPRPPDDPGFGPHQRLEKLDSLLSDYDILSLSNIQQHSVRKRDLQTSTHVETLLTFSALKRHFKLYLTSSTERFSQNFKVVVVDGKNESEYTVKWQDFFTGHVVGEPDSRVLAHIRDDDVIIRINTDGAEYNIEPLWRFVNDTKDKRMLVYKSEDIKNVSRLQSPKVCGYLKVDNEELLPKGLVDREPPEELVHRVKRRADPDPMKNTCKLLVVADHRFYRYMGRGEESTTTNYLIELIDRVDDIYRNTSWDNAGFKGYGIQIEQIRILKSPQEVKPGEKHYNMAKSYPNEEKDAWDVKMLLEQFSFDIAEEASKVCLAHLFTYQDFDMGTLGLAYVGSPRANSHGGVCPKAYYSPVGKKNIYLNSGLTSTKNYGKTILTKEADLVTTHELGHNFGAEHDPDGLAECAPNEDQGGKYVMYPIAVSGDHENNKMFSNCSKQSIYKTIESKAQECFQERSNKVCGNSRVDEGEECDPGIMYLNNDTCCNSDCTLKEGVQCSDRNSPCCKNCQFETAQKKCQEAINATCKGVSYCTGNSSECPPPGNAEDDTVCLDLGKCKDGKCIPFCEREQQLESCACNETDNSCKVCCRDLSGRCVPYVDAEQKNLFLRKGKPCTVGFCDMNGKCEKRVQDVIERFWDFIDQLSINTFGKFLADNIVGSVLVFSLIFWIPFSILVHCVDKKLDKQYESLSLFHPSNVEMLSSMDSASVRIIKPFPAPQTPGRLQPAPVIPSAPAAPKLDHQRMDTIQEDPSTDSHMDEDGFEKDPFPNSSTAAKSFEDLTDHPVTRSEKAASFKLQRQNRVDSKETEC

Row | SMILES | Activity [1] | Ki (Stromelysin-1 [2]) [µM] | Ki (Interstitial collagenase [3]) [µM] | Ki [4] [µM] | IC50 [5] [µM] | IC50 [6] [µM] | IC50 [7] [µM] | IC50 (Interstitial collagenase [8]) [µM] | IC50 (Stromelysin-1 [9]) [µM]
1 | COc1ccc(S(=O)(=O)C(CC(=O)NO)c2ccc(-c3ccccc3)cc2)cc1 (centres undefined) | inactive | > 10 | > 10 | > 10 | 4.4 | 3.6 |  |  | 
2 | COc1ccc(S(=O)(=O)C(CC(=O)NO)c2ccc(OCc3ccccc3)cc2)cc1 (centres undefined) | inactive | > 10 | > 10 | > 10 | 1.2 | 0.52 |  |  | 
3 | COc1ccc(S(=O)(=O)C(CC(=O)NO)CC(C)CC(C)(C)C)cc1 (centres undefined) | inactive | 0.676 | 1.72 | 0.027 | 8 |  |  |  | 
4 | COc1ccc(S(=O)(=O)C(CC(=O)NO)c2ccc(Oc3ccccc3)cc2)cc1 (centres undefined) | inactive | > 10 | > 10 | > 10 | 0.73 | 0.28 |  |  | 

Next, values leading:

Row | Activity [1] | Ki (Stromelysin-1 [2]) [µM] | Ki (Interstitial collagenase [3]) [µM] | Ki [4] [µM] | IC50 [5] [µM] | IC50 [6] [µM] | IC50 [7] [µM] | IC50 (Interstitial collagenase [8]) [µM] | IC50 (Stromelysin-1 [9]) [µM] | SMILES
5 |  |  |  |  |  | 0.011 | > 10 | > 10 | > 10 | COc1ccc(S(=O)(=O)C(CCCCc2ccc3c(c2)OCO3)CC(=O)NO)cc1OC1CCCC1 (centres undefined)
6 |  |  |  |  |  | 0.0069 | > 10 | > 10 | > 10 | COc1ccc(S(=O)(=O)C(CCCCc2ccccc2)CC(=O)NO)cc1OC1CCCC1 (centres undefined)
7 |  |  |  |  |  |  | > 10 | > 10 | > 10 | COc1ccc(S(=O)(=O)C(CCCCc2ccccc2)CC(=O)NO)cc1OC (centres undefined)
8 | inactive | 0.086 | 1.71 | 0.008 | > 10 |  |  |  |  | COc1ccc(S(=O)(=O)C(CC(=O)NO)C2CCCCC2)cc1 (centres undefined)

From ChEMBL document CHEMBL1133244, “Solid-phase synthesis of an arylsulfone hydroxamate library” (Bioorg Med Chem Lett, 2000)
